# Measured values reported in article PMC7579906, “Discovery of a dual inhibitor of NQO1 and GSTP1 for treating glioblastoma” (Journal of Hematology & Oncology, 2020).
# Columns and labels:
# [1] = target: T1, wild-type GSTP1 (Homo sapiens, UniProt P09211, I105V); experiment: GSTP1 kinetic assay (GSH/CDNB conjugation), wild type; format: biochemical; conditions: Supplementary Table 1, mean ± SEM (n=3), 30 min pre-incubation; read-out: IC50 (μM), GSTP1 WT
# T1 construct: hexahistidine tag followed by a thrombin site (N); made in house; host or cells: Escherichia coli BL21 (DE3)
# T1 sequence (P09211 whole entry I105V): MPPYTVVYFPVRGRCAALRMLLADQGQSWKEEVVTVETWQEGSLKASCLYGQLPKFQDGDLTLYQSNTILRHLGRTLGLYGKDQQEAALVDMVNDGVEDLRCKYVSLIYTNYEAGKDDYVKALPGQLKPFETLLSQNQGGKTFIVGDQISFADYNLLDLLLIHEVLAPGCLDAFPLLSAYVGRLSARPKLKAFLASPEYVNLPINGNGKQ
# Description: (§1) The enzymatic activity of GSTP1 and its mutations was measured through the increased absorbance at 340 nm, which derived from the conjugation of reduced glutathione (GSH) and 1-chloro-2,4-dinitrobenzene (CDNB). The conjugation was initiated by adding CDNB to the mixture of GSH and GSTP1 or its mutants, and OD was immediately and continually measured for 20 min at 25 °C. The final assay mixture included 1 mM CDNB, 1 mM GSH in the buffer of 100 mM potassium phosphate pH 6.5, 1 mM EDTA. The inhibitory potency of MNPC versus GSTP1 or mutants was determined by calculating the residual activity after incubated with MNPC for 30 min at room temperature. Parallel control was run to monitor spontaneous conjugation of GSH and CDNB in the absence of the enzyme, and absorbance change of the control was used for the correction of an enzymatic reaction. The inhibition rate in triplicate was calculated by GraphPad Prism software (GraphPad, San Diego, CA) to give IC50 using nonlinear regression analysis.
# [2] = target: T2, GSTP1 Y108A (Homo sapiens, UniProt P09211, I105V/Y109A); experiment: GSTP1 kinetic assay, Y108A mutant; format: biochemical; conditions: mean ± SEM (n=3)
# T2 construct: hexahistidine tag followed by a thrombin site (N); made in house; host or cells: Escherichia coli BL21 (DE3)
# T2 sequence (P09211 whole entry I105V/Y109A): as the sequence (P09211 whole entry I105V) above, with Y109A counted along it
# Description: as §1
# [3] = target: T3, AEP (asparagine endopeptidase) (Homo sapiens, UniProt Q99538); experiment: AEP activity assay in cell lysates; format: cell-based; conditions: U87MG/EGFRvIII lysates, 0-5 μM
# T3 construct: endogenous in cells; host or cells: U87MG/EGFRvIII cells (lysate)
# T3 sequence (Q99538 18-433): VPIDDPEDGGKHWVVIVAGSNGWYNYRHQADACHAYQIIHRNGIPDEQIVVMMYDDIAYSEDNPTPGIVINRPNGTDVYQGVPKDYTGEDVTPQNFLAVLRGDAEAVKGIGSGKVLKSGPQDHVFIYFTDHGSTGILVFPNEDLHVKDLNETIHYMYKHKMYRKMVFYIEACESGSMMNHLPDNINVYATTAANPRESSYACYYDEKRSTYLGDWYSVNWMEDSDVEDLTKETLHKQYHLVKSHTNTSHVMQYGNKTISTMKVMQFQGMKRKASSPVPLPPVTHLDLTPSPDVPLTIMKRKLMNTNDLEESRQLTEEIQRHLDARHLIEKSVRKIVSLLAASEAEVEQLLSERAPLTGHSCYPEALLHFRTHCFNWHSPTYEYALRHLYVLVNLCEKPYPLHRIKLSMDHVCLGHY
# Description: After different treatments, cell lysates were incubated in 200 μl assay buffer (20 mM citric acid, 60 mM Na2HPO4, 1 mM EDTA, 0.1% CHAPS and 1 mM DTT, pH 6.0) containing 20 μM AEP substrate Z-Ala-Ala-Asn-AMC (Bachem, USA). AMC released by substrate cleavage was quantified by measuring every 10 min at 460 nm in a fluorescence plate reader at 37 °C in kinetic mode for the total time of 1 h.
smiles,measurement,setting,value
"Cc1onc(-c2ccccc2)c1C(=O)Nc1ncc([N+](=O)[O-])s1 [MNPC, 5-methyl-N-(5-nitro-thiazol-2-yl)-3-phenylisoxazole-4-carboxamide]",IC50,[1],0.4 ± 0.39 µM
same,IC50,[2],25.7 ± 1.41 µM
same,Inhibition of AEP,[3],nor inhibited
